From US8884061B2, “Compositions and methods of use of electron transport system inhibitors” (priority 2006, dated 2014)
≈ marks a conversion by molar mass, not a printed value.

Tests used:
[1] = molecular target: MenA (Mycobacterium tuberculosis, UniProt P9WIP3); experiment: In vitro assay against MenA (membrane fractions); format: biochemical; details: membrane fractions from M. tuberculosis; 5 μM farnesyl diphosphate, 50 μM dihydroxynaphthoic acid, pH 8.5; read-out: IC50 (μmol) MenA
[2] = system: M. tuberculosis H37Rv; experiment: MIC, colorimetric microtiter plate method with Alamar blue; format: cell-based; details: Mycobacterium tuberculosis, read-out: MIC (μg/mL) M. tuberculosis
Description: Activity Against M. Tuberculosis
The minimum inhibitory concentration (MIC) of compounds were determined against H37Rv by a colorimetric microtiter plate based method with Alamar blue.

Chain of MenA (P9WIP3 whole entry): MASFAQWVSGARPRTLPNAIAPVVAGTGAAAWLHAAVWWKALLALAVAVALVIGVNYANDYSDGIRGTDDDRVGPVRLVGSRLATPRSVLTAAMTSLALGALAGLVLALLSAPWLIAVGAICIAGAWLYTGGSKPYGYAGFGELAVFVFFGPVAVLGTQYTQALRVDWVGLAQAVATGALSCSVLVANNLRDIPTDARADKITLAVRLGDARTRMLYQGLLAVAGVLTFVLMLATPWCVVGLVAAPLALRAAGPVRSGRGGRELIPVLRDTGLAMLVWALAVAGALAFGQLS

C=CCN(C)CCCCCCCOc1ccc(C(=O)c2ccc(Br)cc2)cc1 [Cpd 1, (4-(7-(allyl(methyl)amino)heptyloxy)phenyl)(4-bromophenyl)methanone]
IC50 [1]: 12 µM | MIC [2]: 5 µg/mL (≈ 11.3 µM)

C=CCN(C)CCCCCCCCOc1ccc(C(=O)c2ccc(Br)cc2)cc1 [Cpd 2]
IC50 [1]: 10 µM | MIC [2]: 4 µg/mL (≈ 8.73 µM)

C=CCN(C)CCCCCCCOc1ccc(C(O)c2ccc(Br)cc2)cc1 (stereo not shown) [Cpd 3]
IC50 [1]: 15 µM | MIC [2]: 5 µg/mL (≈ 11.2 µM)

C=CCN(C)CCCCCCCCOc1ccc(C(O)c2ccc(Br)cc2)cc1 (stereo not shown) [Cpd 4]
IC50 [1]: 12 µM | MIC [2]: 7 µg/mL (≈ 15.2 µM)

C=CCN(C)CCCCCCCCOc1ccc(C(=O)c2ccc(Cl)cc2)cc1 [Cpd 5, (4-(8-(Allyl(methyl)amino)octyloxy)phenyl)(4-chlorophenyl)methanone]
IC50 [1]: 5 µM | MIC [2]: 0.3 µg/mL (≈ 0.725 µM)

C=CCN(C)CCCCCCCCOc1ccc(C(O)c2ccc(Cl)cc2)cc1 (stereo not shown) [Cpd 6, (4-(8-(allyl(methyl)amino)octyloxy)phenyl)(4-chlorophenyl)methanol]
IC50 [1]: 10 µM | MIC [2]: 3 µg/mL (≈ 7.21 µM)

C=CCN(C)CCCCCCCCOc1ccc(C(=O)c2ccc(Cl)cc2Cl)cc1 [Cpd 7, (4-(8-(Allyl(methyl)amino)octyloxy)phenyl)(2,4-dichlorophenyl)methanone]
IC50 [1]: 10 µM | MIC [2]: 4 µg/mL (≈ 8.92 µM)

C=CCN(C)CCCCCCCCOc1ccc(C(O)c2ccc(Cl)cc2Cl)cc1 (stereo not shown) [Cpd 8]
IC50 [1]: 12 µM | MIC [2]: 5 µg/mL (≈ 11.1 µM)
